Measured values from US8461329B2, “Isoquinoline derivative” (Taisho Pharmaceutical Co., Ltd., priority 2008, dated 2013).
pIC50: −log10 of the molar value.

Target: T1, CRTH2 (KB8 cells) (Homo sapiens, UniProt Q9Y5Y4)
T1 construct: host or cells: KB8 cells (human CRTH2 expression cell)
T1 sequence (Q9Y5Y4 1-395): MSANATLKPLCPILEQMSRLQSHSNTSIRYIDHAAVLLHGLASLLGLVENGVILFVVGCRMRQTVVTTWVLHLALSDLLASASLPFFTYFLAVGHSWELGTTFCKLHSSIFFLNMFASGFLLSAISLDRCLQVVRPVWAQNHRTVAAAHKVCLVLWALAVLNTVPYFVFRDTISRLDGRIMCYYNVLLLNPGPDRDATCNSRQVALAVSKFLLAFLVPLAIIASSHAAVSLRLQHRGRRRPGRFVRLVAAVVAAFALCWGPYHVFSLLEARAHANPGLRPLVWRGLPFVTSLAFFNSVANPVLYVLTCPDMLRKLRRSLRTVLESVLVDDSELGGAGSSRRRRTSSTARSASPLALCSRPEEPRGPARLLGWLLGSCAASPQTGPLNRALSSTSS
Test: CRTH2 antagonist test (PGD2-induced intracellular calcium ion concentration increase in KB8 cells)
Type: cell-based
Conditions: PGD2 final concentration 100 nM, Fluo-4-AM fluorescence, read-out: antagonist activity (IC50 value, inhibition of calcium ion concentration increase)
Procedure: The antagonist activity of the compound of the present invention was considered by using the intracellular calcium ion concentration increase reaction induced when the prostaglandin D2 was added to KB8 cells.
Fluo-4-AM (4-(6-acetoxymethoxy-2,7-difluoro-3-oxo-9-xanthenyl)-4′-methyl-2,2′-(ethylenedioxy)dianilide-N,N,N′,N′-tetraacetic acid tetrakis(acetoxymethyl) ester (SIGMA, final concentration: 1 μM) was added to KB8 cells, and the cells were incubated at 37° C. for 30 min, washed with phosphate buffer (Invitrogen), and then suspended in Hank's balanced salt solution (Invitrogen)) containing a reaction buffer solution (10 mM HEPES (Invitrogen), and 1 mM calcium chloride (SIGMA). The suspension was dispensed in a 96 well plate (Nunc) so that 2×10^5 cells/well were placed, and the compound of the present invention and PGD2 (final concentration: 100 nM) were added. The fluorescence intensity thereof was measured over time by using FDSS6000 (Hamamatsu Photonics), and thus the maximum fluorescence intensity value “d” was obtained. The same procedure was carried out in the absence of the compound, and the maximum fluorescence intensity value “e” was obtained; and the same procedure was carried out in the absence of the compound and […], and the maximum fluorescence intensity value “f” was obtained.
The calcium ion concentration increase inhibition rate of a compound was calculated by the following calculation formula: Inhibitory rate(%)=[1−(d−f)/(e−f)]×100
That is to say, by using calcium ion concentration increase inhibitory rates of compounds to be tested having various concentrations, the IC50 value was calculated according to a dose-dependent inhibition curve analyzed by using XLfit (IDBS) as a data analysis software, and the value was defined as an indicator of the antagonist activity. In Tables, A denotes an inhibitory activity showing the IC50 value of less than 50 nM; B denotes an inhibitory activity showing the IC50 value of 50 nM or greater and less than 500 nM; C denotes an inhibitory activity showing the IC50 value of 500 nM or greater and less than 1000 nM; and D denotes an inhibitory activity showing the IC50 value of 1000 nM or greater.

pIC50	Structure (SMILES)
≤ 6.00	O=C(O)Cc1cnc(C(=O)c2ccc(NC(=O)c3ccccc3Cl)cc2)c2ccccc12 [Example 24]
≤ 6.00	O=C(O)Cc1cnc(C(=O)c2ccc(NC(=O)c3ccccc3Br)cc2)c2ccccc12 [Example 25]
6.30 to 7.30	Cc1ccccc1C(=O)Nc1ccc(C(=O)c2ncc(CC(=O)O)c3ccccc23)cc1 [Example 26]
> 7.30	O=C(O)Cc1cnc(C(=O)c2ccc(NC(=O)c3ccc(F)cc3)cc2)c2ccccc12 [Example 28]
6.00 to 6.30	O=C(O)Cc1cnc(C(=O)c2ccc(NC(=O)c3cccc(Cl)c3Cl)cc2)c2ccccc12 [Example 30]
> 7.30	O=C(O)Cc1cnc(C(=O)c2ccc(NC(=O)c3ccc(Cl)c(F)c3)cc2)c2ccccc12 [Example 31]
> 7.30	O=C(O)Cc1cnc(C(=O)c2ccc(NC(=O)c3ccc(Br)cc3)cc2)c2ccccc12 [Example 32]
≤ 6.00	O=C(O)Cc1cnc(C(=O)c2ccc(NC(=O)c3c(Cl)cccc3Cl)cc2)c2ccccc12 [Example 33]
> 7.30	O=C(O)Cc1cnc(C(=O)c2ccc(NC(=O)c3ccc(F)c(F)c3)cc2)c2ccccc12 [Example 35]
≤ 6.00	O=C(O)Cc1cnc(C(=O)c2ccc(NC(=O)c3c(F)cccc3Cl)cc2)c2ccccc12 [Example 36]
> 7.30	O=C(O)Cc1cnc(C(=O)c2ccc(NC(=O)c3cc(Cl)cc(Cl)c3)cc2)c2ccccc12 [Example 37]
> 7.30	O=C(O)Cc1cnc(C(=O)c2ccc(NC(=O)c3ccccc3)cc2)c2ccccc12 [Example 38]
6.00 to 6.30	O=C(O)Cc1cnc(C(=O)c2ccc(NC(=O)c3ccccc3F)cc2)c2ccccc12 [Example 39]
≤ 6.00	COc1ccccc1C(=O)Nc1ccc(C(=O)c2ncc(CC(=O)O)c3ccccc23)cc1 [Example 40]
6.30 to 7.30	O=C(O)Cc1cnc(C(=O)c2ccc(NC(=O)c3ccc(Cl)cc3Cl)cc2)c2ccccc12 [Example 41]
6.00 to 6.30	O=C(O)Cc1cnc(C(=O)c2ccc(NC(=O)c3cc(F)ccc3Cl)cc2)c2ccccc12 [Example 42]
6.30 to 7.30	O=C(O)Cc1cnc(C(=O)c2ccc(NC(=O)c3cc(Cl)ccc3Cl)cc2)c2ccccc12 [Example 43]
6.30 to 7.30	Cc1ccc(C)c(C(=O)Nc2ccc(C(=O)c3ncc(CC(=O)O)c4ccccc34)cc2)c1 [Example 44]
6.30 to 7.30	O=C(O)Cc1cnc(C(=O)c2ccc(NC(=O)c3cc(Cl)cc(Cl)c3Cl)cc2)c2ccccc12 [Example 45]
6.30 to 7.30	O=C(O)Cc1cnc(C(=O)c2ccc(NC(=O)c3cccc4ccccc34)cc2)c2ccccc12 [Example 46]
6.00 to 6.30	O=C(O)Cc1cnc(C(=O)c2ccc(NC(=O)c3ccc(F)cc3Cl)cc2)c2ccccc12 [Example 47]

pIC50	Structure (SMILES)
≤ 6.00	O=C(O)Cc1cnc(C(=O)c2ccc(NC(=O)c3c(Cl)cc(Cl)cc3Cl)cc2)c2ccccc12 [Example 48]
≤ 6.00	Cc1ccc(Cl)c(C(=O)Nc2ccc(C(=O)c3ncc(CC(=O)O)c4ccccc34)cc2)c1F [Example 49]
≤ 6.00	O=C(O)Cc1cnc(C(=O)c2ccc(NC(=O)c3ccncc3)cc2)c2ccccc12 [Example 51]
6.30 to 7.30	O=C(O)Cc1cnc(C(=O)c2ccc(NC(=O)c3ccc(F)c(F)c3F)cc2)c2ccccc12 [Example 52]
6.30 to 7.30	O=C(O)Cc1cnc(C(=O)c2ccc(NC(=O)CC34CC5CC(CC(C5)C3)C4)cc2)c2ccccc12 [Example 53]
> 7.30	O=C(O)Cc1cnc(C(=O)c2ccc(NC(=O)c3ccc4c(c3)CCCC4)cc2)c2ccccc12 [Example 54]
6.00 to 6.30	O=C(O)Cc1cnc(C(=O)c2ccc(NC(=O)c3ncccn3)cc2)c2ccccc12 [Example 55]
6.30 to 7.30	O=C(O)Cc1cnc(C(=O)c2ccc(NC(=O)c3cc(F)c(Cl)cc3Cl)cc2)c2ccccc12 [Example 56]
≤ 6.00	O=C(O)Cc1cnc(C(=O)c2ccc(NC(=O)c3cscn3)cc2)c2ccccc12 [Example 58]
6.30 to 7.30	O=C(O)Cc1cnc(C(=O)c2ccc(NC(=O)C3(c4ccc(Cl)cc4)CCCC3)cc2)c2ccccc12 [Example 59]
6.30 to 7.30	O=C(O)Cc1cnc(C(=O)c2ccc(NC(=O)C3Cc4ccccc4C3)cc2)c2ccccc12 [Example 60]
6.30 to 7.30	Cc1cc(F)ccc1C(=O)Nc1ccc(C(=O)c2ncc(CC(=O)O)c3ccccc23)cc1 [Example 61]
6.30 to 7.30	Cc1ccc(F)cc1C(=O)Nc1ccc(C(=O)c2ncc(CC(=O)O)c3ccccc23)cc1 [Example 62]
6.30 to 7.30	COc1cc(C(=O)Nc2ccc(C(=O)c3ncc(CC(=O)O)c4ccccc34)cc2)cc(OC)c1OC [Example 63]
> 7.30	C=Cc1ccc(C(=O)Nc2ccc(C(=O)c3ncc(CC(=O)O)c4ccccc34)cc2)cc1 [Example 64]
6.00 to 6.30	CC(C)=CC(=O)Nc1ccc(C(=O)c2ncc(CC(=O)O)c3ccccc23)cc1 [Example 65]
≤ 6.00	O=C(O)Cc1cnc(C(=O)c2ccc(NC(=O)c3cccnc3)cc2)c2ccccc12 [Example 66]
6.30 to 7.30	O=C(O)Cc1cnc(C(=O)c2ccc(NC(=O)c3ccc4ncccc4c3)cc2)c2ccccc12 [Example 67]
6.30 to 7.30	Cc1ccc(S(=O)(=O)NCC(=O)Nc2ccc(C(=O)c3ncc(CC(=O)O)c4ccccc34)cc2)cc1 [Example 68]
≤ 6.00	O=C(O)Cc1cnc(C(=O)c2ccc(NC(=O)c3cnccn3)cc2)c2ccccc12 [Example 69]
6.30 to 7.30	O=C(O)Cc1cnc(C(=O)c2ccc(NC(=O)c3cccc(Cl)c3F)cc2)c2ccccc12 [Example 70]

pIC50	Structure (SMILES)
6.30 to 7.30	O=C(O)Cc1cnc(C(=O)c2ccc(NC(=O)c3cccc(F)c3)cc2)c2ccccc12 [Example 71]
> 7.30	COc1cccc(C(=O)Nc2ccc(C(=O)c3ncc(CC(=O)O)c4ccccc34)cc2)c1 [Example 72]
> 7.30	Cc1cccc(C(=O)Nc2ccc(C(=O)c3ncc(CC(=O)O)c4ccccc34)cc2)c1 [Example 73]
6.30 to 7.30	CS(=O)(=O)c1ccc(C(=O)Nc2ccc(C(=O)c3ncc(CC(=O)O)c4ccccc34)cc2)cc1 [Example 74]
6.30 to 7.30	O=C(O)Cc1cnc(C(=O)c2ccc(NC(=O)C3CCCCC3)cc2)c2ccccc12 [Example 76]
> 7.30	O=C(O)Cc1cnc(C(=O)c2ccc(NC(=O)CCC3CCCCC3)cc2)c2ccccc12 [Example 77]
> 7.30	C/C(=C\c1ccccc1)C(=O)Nc1ccc(C(=O)c2ncc(CC(=O)O)c3ccccc23)cc1 [Example 78]
≤ 6.00	O=C(O)Cc1cnc(C(=O)c2ccc(NC(=O)c3ccc(C(=O)O)cc3)cc2)c2ccccc12 [Example 79]
6.30 to 7.30	CCCCC(=O)Nc1ccc(C(=O)c2ncc(CC(=O)O)c3ccccc23)cc1 [Example 80]
≤ 6.00	O=C(O)Cc1cnc(C(=O)c2ccc(NC(=O)C3CCOCC3)cc2)c2ccccc12 [Example 81]
> 7.30	COc1ccc(/C=C/C(=O)Nc2ccc(C(=O)c3ncc(CC(=O)O)c4ccccc34)cc2)cc1 [Example 84]
> 7.30	O=C(O)Cc1cnc(C(=O)c2ccc(NC(=O)c3c[nH]c4ccccc34)cc2)c2ccccc12 [Example 85]
6.30 to 7.30	O=C(O)Cc1cnc(C(=O)c2ccc(NC(=O)c3cnc4ccccc4n3)cc2)c2ccccc12 [Example 86]
6.30 to 7.30	O=C(O)Cc1cnc(C(=O)c2ccc(NC(=O)COc3ccc(Cl)cc3)cc2)c2ccccc12 [Example 87]
> 7.30	O=C(O)Cc1cnc(C(=O)c2ccc(NC(=O)c3csc4ccccc34)cc2)c2ccccc12 [Example 88]
> 7.30	O=C(O)Cc1cnc(C(=O)c2ccc(NC(=O)c3ccc(O)cc3)cc2)c2ccccc12 [Example 89]
6.30 to 7.30	O=C(O)Cc1cnc(C(=O)c2ccc(NC(=O)C3=CCCCC3)cc2)c2ccccc12 [Example 90]
> 7.30	O=C(O)Cc1cnc(C(=O)c2ccc(NC(=O)c3ccc(C(=O)c4ccccc4)cc3)cc2)c2ccccc12 [Example 91]
> 7.30	O=C(O)Cc1cnc(C(=O)c2ccc(NC(=O)c3ccc4ccccc4n3)cc2)c2ccccc12 [Example 93]
> 7.30	O=C(O)Cc1cnc(C(=O)c2ccc(NC(=O)c3cc4c([nH]3)CCCC4)cc2)c2ccccc12 [Example 94]
6.30 to 7.30	O=C(O)Cc1cnc(C(=O)c2ccc(NC(=O)c3c[nH]c4ncccc34)cc2)c2ccccc12 [Example 95]
